Data as given in US11498899B2, “Nitrone herbicides” (FMC Corporation, priority 2016, dated 2022).

What was measured:
[1] = system: galium (catchweed bedstraw, Galium aparine); assay: Test A postemergence, visual injury rating 0-100; assay type: in vivo; details: 0 to 100 scale
[2] = system: blackgrass (Alopecurus myosuroides); assay: Test A postemergence, visual injury rating 0-100; assay type: in vivo; details: 0 to 100 scale
corn (Zea mays) = assay: Test A postemergence, visual injury rating 0-100; assay type: in vivo; details: 0 to 100 scale
[3] = system: pigweed (Amaranthus retroflexus); assay: Test A postemergence, visual injury rating 0-100; assay type: in vivo; details: 0 to 100 scale
[4] = system: ragweed (common ragweed, Ambrosia elatior); assay: Test A postemergence, visual injury rating 0-100; assay type: in vivo; details: 0 to 100 scale
[5] = system: barnyardgrass (Echinochloa crus-galli); assay: Test A postemergence, visual injury rating 0-100; assay type: in vivo; details: 0 to 100 scale
[6] = system: ryegrass, Italian (Italian ryegrass, Lolium multiflorum); assay: Test A postemergence, visual injury rating 0-100; assay type: in vivo; details: 0 to 100 scale
[7] = system: foxtail, giant (giant foxtail, Setaria faberii); assay: Test A postemergence, visual injury rating 0-100; assay type: in vivo; details: 0 to 100 scale
kochia (Kochia scoparia) [8] = assay: Test A postemergence, visual injury rating 0-100; assay type: in vivo; details: 0 to 100 scale
[9] = system: wheat (Triticum aestivum); assay: Test A postemergence, visual injury rating 0-100; assay type: in vivo; details: 0 to 100 scale
[10] = system: barnyardgrass (Echinochloa crus-galli); assay: Test B flooded paddy test, visual rating 0-100; details: Flood, 250 g ai/ha, applied to paddy water, rated after 13 to 15 days
[11] = system: ducksalad (Heteranthera limosa); assay: Test B flooded paddy test, visual rating 0-100; details: Flood, 250 g ai/ha, applied to paddy water, rated after 13 to 15 days
rice (Oryza sativa) = assay: Test B flooded paddy test, visual rating 0-100 (0 no effect, 100 complete control); details: Flood, 250 g ai/ha, applied to paddy water, rated after 13 to 15 days
[12] = system: barnyardgrass (Echinochloa crus-galli); assay: Test A preemergence, visual injury rating 0-100 (0 no effect, 100 complete control); assay type: in vivo
[13] = system: pigweed (Amaranthus retroflexus); assay: Test A preemergence, visual injury rating 0-100; assay type: in vivo
[14] = system: ragweed (common ragweed, Ambrosia elatior); assay: Test A preemergence, visual injury rating 0-100; assay type: in vivo
[15] = system: ryegrass, Italian (Italian ryegrass, Lolium multiflorum); assay: Test A preemergence, visual injury rating 0-100; assay type: in vivo
[16] = system: foxtail, giant (giant foxtail, Setaria faberii); assay: Test A preemergence, visual injury rating 0-100; assay type: in vivo
kochia (Kochia scoparia) [17] = assay: Test A preemergence, visual injury rating 0-100; assay type: in vivo

| Structure (SMILES) | Galium plant response rating ([1]; 125 g ai/ha) | Galium plant response rating ([1]; 500 g ai/ha) | Blackgrass plant response rating ([2]; 125 g ai/ha) | Blackgrass plant response rating ([2]; 500 g ai/ha) | Corn plant response rating (corn (Zea mays); 125 g ai/ha) | Corn plant response rating (corn (Zea mays); 500 g ai/ha) | Pigweed plant response rating ([3]; 125 g ai/ha) | Pigweed plant response rating ([3]; 500 g ai/ha) | Ragweed plant response rating ([4]; 125 g ai/ha) | Ragweed plant response rating ([4]; 500 g ai/ha) | Barnyardgrass plant response rating ([5]; 125 g ai/ha) | Barnyardgrass plant response rating ([5]; 500 g ai/ha) | Ryegrass, Italian plant response rating ([6]; 125 g ai/ha) | Ryegrass, Italian plant response rating ([6]; 500 g ai/ha) | Foxtail, Giant plant response rating ([7]; 125 g ai/ha) | Foxtail, Giant plant response rating ([7]; 500 g ai/ha) | Kochia plant response rating (kochia (Kochia scoparia) [8]; 125 g ai/ha) | Kochia plant response rating (kochia (Kochia scoparia) [8]; 500 g ai/ha) | Wheat plant response rating ([9]; 125 g ai/ha) | Wheat plant response rating ([9]; 500 g ai/ha) | also measured |
| --- | --- | --- | --- | --- | --- | --- | --- | --- | --- | --- | --- | --- | --- | --- | --- | --- | --- | --- | --- | --- | --- |
| CC1=[N+]([O-])C(C(=O)Nc2cccc(F)c2F)C(c2ccc(C(F)(F)F)c(C)c2)C1 (racemic) [Compound 87] | 0 | 70 | 70 | 90 | 70 | 80 | 0 | 50 | 10 | 30 | 80 | 90 | 70 | 90 | 60 | 90 | 10 | 70 | 70 | 80 | Barnyardgrass plant response rating (0 to 100 scale) [10]: 50; Ducksalad plant response rating (0 to 100 scale) [11]: 85; Rice plant response rating (0 to 100 scale) (rice (Oryza sativa)): 0; Barnyardgrass plant response rating (0 to 100 scale) ([12]; 125 g ai/ha): 90; Barnyardgrass plant response rating (0 to 100 scale) ([12]; 500 g ai/ha): 90; Pigweed plant response rating (0 to 100 scale) ([13]; 125 g ai/ha): 100; Pigweed plant response rating (0 to 100 scale) ([13]; 500 g ai/ha): 100; Ragweed plant response rating (0 to 100 scale) ([14]; 125 g ai/ha): 0; Ragweed plant response rating (0 to 100 scale) ([14]; 500 g ai/ha): 70; Ryegrass, Italian plant response rating (0 to 100 scale) ([15]; 125 g ai/ha): 90; Ryegrass, Italian plant response rating (0 to 100 scale) ([15]; 500 g ai/ha): 90; Foxtail, Giant plant response rating (0 to 100 scale) ([16]; 125 g ai/ha): 90; Foxtail, Giant plant response rating (0 to 100 scale) ([16]; 500 g ai/ha): 90; Kochia plant response rating (0 to 100 scale) (kochia (Kochia scoparia) [17]; 125 g ai/ha): 10; Kochia plant response rating (0 to 100 scale) (kochia (Kochia scoparia) [17]; 500 g ai/ha): 80 |
| CC1=[N+]([O-])C(C(=O)Nc2cccc(F)c2F)C(c2ccc(C(F)(F)F)cn2)C1 (racemic) [Compound 88] | 20 | 50 | 10 | 30 | 0 | 0 | 0 | 0 | 0 | 10 | 0 | 50 | 0 | 0 | 0 | 10 | 0 | 30 | 0 | 0 | Barnyardgrass plant response rating (0 to 100 scale) [10]: 15; Ducksalad plant response rating (0 to 100 scale) [11]: 100; Rice plant response rating (0 to 100 scale) (rice (Oryza sativa)): 15; Barnyardgrass plant response rating (0 to 100 scale) ([12]; 125 g ai/ha): 20; Barnyardgrass plant response rating (0 to 100 scale) ([12]; 500 g ai/ha): 90; Pigweed plant response rating (0 to 100 scale) ([13]; 125 g ai/ha): 0; Pigweed plant response rating (0 to 100 scale) ([13]; 500 g ai/ha): 60; Ragweed plant response rating (0 to 100 scale) ([14]; 125 g ai/ha): 0; Ragweed plant response rating (0 to 100 scale) ([14]; 500 g ai/ha): 80; Ryegrass, Italian plant response rating (0 to 100 scale) ([15]; 125 g ai/ha): 0; Ryegrass, Italian plant response rating (0 to 100 scale) ([15]; 500 g ai/ha): 0; Foxtail, Giant plant response rating (0 to 100 scale) ([16]; 125 g ai/ha): 20; Foxtail, Giant plant response rating (0 to 100 scale) ([16]; 500 g ai/ha): 90; Kochia plant response rating (0 to 100 scale) (kochia (Kochia scoparia) [17]; 125 g ai/ha): 10; Kochia plant response rating (0 to 100 scale) (kochia (Kochia scoparia) [17]; 500 g ai/ha): 70 |
| CC1=[N+]([O-])C(C(=O)Nc2cccc(F)c2F)C(c2ccc(C(F)(F)F)c(Cl)c2)C1 (racemic) [Compound 102] | 50 | 70 | 60 | 80 | 40 | 40 | 30 | 70 | 20 | 50 | 70 | 80 | 40 | 50 | 70 | 80 | 30 | 40 | 20 | 40 | Barnyardgrass plant response rating (0 to 100 scale) [10]: 0; Ducksalad plant response rating (0 to 100 scale) [11]: 0; Rice plant response rating (0 to 100 scale) (rice (Oryza sativa)): 0; Barnyardgrass plant response rating (0 to 100 scale) ([12]; 125 g ai/ha): 80; Barnyardgrass plant response rating (0 to 100 scale) ([12]; 500 g ai/ha): 90; Pigweed plant response rating (0 to 100 scale) ([13]; 125 g ai/ha): 60; Pigweed plant response rating (0 to 100 scale) ([13]; 500 g ai/ha): 90; Ragweed plant response rating (0 to 100 scale) ([14]; 125 g ai/ha): 50; Ragweed plant response rating (0 to 100 scale) ([14]; 500 g ai/ha): 80; Ryegrass, Italian plant response rating (0 to 100 scale) ([15]; 125 g ai/ha): 70; Ryegrass, Italian plant response rating (0 to 100 scale) ([15]; 500 g ai/ha): 90; Foxtail, Giant plant response rating (0 to 100 scale) ([16]; 125 g ai/ha): 90; Foxtail, Giant plant response rating (0 to 100 scale) ([16]; 500 g ai/ha): 90; Kochia plant response rating (0 to 100 scale) (kochia (Kochia scoparia) [17]; 125 g ai/ha): 10; Kochia plant response rating (0 to 100 scale) (kochia (Kochia scoparia) [17]; 500 g ai/ha): 80 |
| CC1=[N+]([O-])C(C(=O)Nc2cccc(F)c2F)C(c2cc(C)cc(F)c2)C1 (racemic) [Compound 103] | 0 | 50 | 80 | 70 | 50 | 60 | 0 | 50 | 40 | 40 | 80 | 90 | 50 | 70 | 80 | 90 | 0 | 30 | 20 | 70 | Barnyardgrass plant response rating (0 to 100 scale) [10]: 65; Ducksalad plant response rating (0 to 100 scale) [11]: 80; Rice plant response rating (0 to 100 scale) (rice (Oryza sativa)): 0; Barnyardgrass plant response rating (0 to 100 scale) ([12]; 125 g ai/ha): 90; Barnyardgrass plant response rating (0 to 100 scale) ([12]; 500 g ai/ha): 90; Pigweed plant response rating (0 to 100 scale) ([13]; 125 g ai/ha): 30; Pigweed plant response rating (0 to 100 scale) ([13]; 500 g ai/ha): 70; Ragweed plant response rating (0 to 100 scale) ([14]; 125 g ai/ha): 60; Ragweed plant response rating (0 to 100 scale) ([14]; 500 g ai/ha): 90; Ryegrass, Italian plant response rating (0 to 100 scale) ([15]; 500 g ai/ha): 90; Foxtail, Giant plant response rating (0 to 100 scale) ([16]; 125 g ai/ha): 90; Foxtail, Giant plant response rating (0 to 100 scale) ([16]; 500 g ai/ha): 100; Kochia plant response rating (0 to 100 scale) (kochia (Kochia scoparia) [17]; 125 g ai/ha): 10; Kochia plant response rating (0 to 100 scale) (kochia (Kochia scoparia) [17]; 500 g ai/ha): 80 |
